Results published in US20210205292A1, “INHIBITORS OF CREB-CBP INTERACTION FOR TREATMENT OF LEUKEMIA” (The Board of Trustees of the Leland Stanford Junior …, priority 2016, published 2021).
Values joined by “and” are separate entries in the source; they are usually repeats but may differ in a detail not shown here. Equal entries are not always repeated. “Also recorded” adds a separate entry of the source.

Assays:
[1] = In vivo toxicity in NSG mice not injected with AML cells; set-up: species or system mouse
Protocol: To assess the potential in vivo toxicities of Compound A, four groups of five mice not injected with AML cells were treated with 2.3 mg/kg Compound A intravenously daily, or 20, 40 or 60 mg/kg intraperitoneally (IP) daily for 28 days.

[2] = target: T1, CREB-CBP binding (KID-KIX) (Homo sapiens, UniProt Q92793); test: Split Renilla luciferase complementation assay; format: cell-based; conditions: 293T cells treated with forskolin; read-out: IC50, inhibition of the interaction between CREB and CBP
T1 construct: the KID and KIX domains were fused to the N- and C-terminal regions of Renilla luciferase, respectively; expressed in transfected cells; host or cells: 293T cells treated with forskolin
T1 sequence (Q92793 587-666 limits assumed): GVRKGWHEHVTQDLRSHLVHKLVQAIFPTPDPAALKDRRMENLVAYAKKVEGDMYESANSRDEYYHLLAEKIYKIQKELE
Protocol: KG-1 cell lines were created to express luciferase in a CREB-dependent or non-CREB-dependent fashion using lentiviral gene delivery. Cells were sorted for mCherry expression by flow cytometry and selected with puromycin. Luciferase activity was measured on a […] using the Promega Luciferase Activity Kit (Promega) per manufacturer's instructions following six hours of treatment with Compound A or 0.1% DMSO. The split Renilla luciferase complementation assay has been described previously (Li BX, and Xiao X. Discovery of a small-molecule inhibitor of the KIX-KID interaction. Chembiochem: a European journal of chemical biology. 2009; 10(17):2721-4). In this assay, the KID and KIX domains were fused to the N- and C-terminal regions of Renilla luciferase, respectively. Once KIX binds phosphorylated KID, the Renilla luciferase regions were brought together, resulting in luciferase activity.
To test the ability of Compound A to disrupt CREB-CBP binding in cells, a split Renilla luciferase complementation assay was performed. […] This early timepoint was selected to permit accurate reporter gene activity measurement prior to the onset of anticipated global cell dysfunction or death induced by Compound A. Treatment with 3 μM Compound A reduced luciferase activity by 33.2±7.7% at this timepoint. […] Thus, Compound A inhibits CREB function through disruption of CREB:CBP interaction.

[3] = 2.3 mg/kg IV or 20, 40 or 60 mg/kg IP daily, 28 days

N#Cc1ccc(NC(=O)c2cc3ccccc3cc2O)cc1 [Compound A, N-(4-cyanophenyl)-3-hydroxy-2-naphthamide]
complete blood counts, liver function tests and kidney function tests [1, 3]: no difference; also recorded: normal complete blood counts, liver function tests and kidney function tests | tissue histology [1, 3]: no evidence of fibrosis or damage; also recorded: no microscopic evidence of vital organ damage | animal body weight ([1]; over 28 days): no decrease in animal body weight | IC50 [2]: ~3.2 µM and 3.2 µM
